In paper PMC7399337, “Biological Properties and Absolute Configuration of Flavanones From Calceolaria thyrsiflora Graham” (Frontiers in Pharmacology, 2020):
≈ marks a conversion by molar mass, not a printed value. Blank lines part the entries; values can stand above or below the compound they belong to.

Columns and labels:
[1] = tested on: S. aureus MRSA 97-7; assay: Antibacterial MIC, CLSI microdilution, human pathogens; assay type: cell-based; conditions: 18 h; for MIC: Staphylococcus aureus, read-out: Minimum inhibitory concentration (MIC)
Protocol: (§1) Briefly, stock solutions (5 mg/ml) of compounds in DMSO were diluted in Mueller-Hinton broth (MHB) to the different two-fold assay concentrations. […] The obtained solution was added to MHB and serially two-fold diluted in a 96-well microplate. A sample of 100 μL of inoculum 1.5 × 10^6 colony forming unit (CFU) ml^-1 in MHB was added and then incubated at 37°C for 18 h. The assay was repeated three times. Wells containing MHB, 100 μL of inoculum, and DMSO served as negative controls.

[2] = tested on: S. aureus MRSA 622-4; assay: as above; assay type: cell-based; conditions: 18 h; for MIC: Staphylococcus aureus, read-out: Minimum inhibitory concentration (MIC)
Protocol: as §1

[3] = tested on: E. coli 33.1; assay: as above; assay type: cell-based; conditions: Escherichia coli; E. coli 33.1 (multi-resistant); 18 h; read-out: Minimum inhibitory concentration (MIC)
Protocol: as §1

[4] = tested on: S. aureus NTCC8325-4; assay: as above; assay type: cell-based; conditions: for MIC: Staphylococcus aureus, NTCC83254, 18 h, read-out: Minimum inhibitory concentration (MIC)
Protocol: as §1

[5] = tested on: E. coli ATCC25922; assay: as above; assay type: cell-based; conditions: Escherichia coli, 18 h, read-out: Minimum inhibitory concentration (MIC)
Protocol: as §1

[6] = target: T1, 5-hLOX (Homo sapiens, UniProt P09917); assay: In vitro 5-hLOX enzyme assay (H2DCFDA fluorescence); assay type: biochemical; conditions: for Type of inhibition: 5-hLOX
T1 construct: purchased Cayman Chemicals Inc. (Ann Arbor, MI, USA)
T1 sequence (P09917 1-674): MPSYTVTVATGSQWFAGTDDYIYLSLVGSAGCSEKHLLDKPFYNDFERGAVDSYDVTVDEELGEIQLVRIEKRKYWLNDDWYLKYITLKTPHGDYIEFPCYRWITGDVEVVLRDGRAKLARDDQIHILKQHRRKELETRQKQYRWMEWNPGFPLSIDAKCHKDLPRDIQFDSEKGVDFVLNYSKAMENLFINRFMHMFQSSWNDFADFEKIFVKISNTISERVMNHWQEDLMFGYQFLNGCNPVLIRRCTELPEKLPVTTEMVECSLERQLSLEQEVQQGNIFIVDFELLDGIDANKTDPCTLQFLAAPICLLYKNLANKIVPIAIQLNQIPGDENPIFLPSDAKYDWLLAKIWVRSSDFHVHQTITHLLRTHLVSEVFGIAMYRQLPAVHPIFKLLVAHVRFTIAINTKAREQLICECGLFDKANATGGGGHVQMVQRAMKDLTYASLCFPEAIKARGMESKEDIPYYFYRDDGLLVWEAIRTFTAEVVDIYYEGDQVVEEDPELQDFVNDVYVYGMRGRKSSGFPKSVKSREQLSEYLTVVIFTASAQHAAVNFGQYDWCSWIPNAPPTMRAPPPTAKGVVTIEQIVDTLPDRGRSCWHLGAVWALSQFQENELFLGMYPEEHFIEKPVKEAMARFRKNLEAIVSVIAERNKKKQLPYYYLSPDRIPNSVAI
Protocol: The commercially available enzyme 5-hLOX from Cayman Chemicals Inc. (Ann Arbor, MI, USA), was diluted (1:500) in the assay buffer. This contained 4-(2-hydroxyethyl)-1-piperazineethane sulfonic acid (HEPES) 50 mM, ethylenediamine tetraacetic acid (EDTA) 2 mM, adenosine triphosphate (ATP) 10 μM, and CaCl2 10 μM at pH 7.5) admixed with 10 μM of H2DCFDA. The reaction mixture was incubated for 15 min in the assay plate. Later, 280 μL of buffer and 10 μM of inhibitors were added per well and incubated for 30 min at 37°C. Finally, the reaction was started by adding a suitable concentration of arachidonic acid (0.5 μM) and the fluorescence was read in a multimode detector Synergy™ HT Multi-Mode Microplate Reader (Biotek, Bad Friedrichshall, Germany) […] after incubation at room temperature for 1 h. The IC50 values were obtained for analysis of oxidation of H2DCFDA dye to the highly fluorescent 2’,7’-dichloro-fluorescein (DCF) using the non-linear curve-fitting program. […] All data were collected in duplicate and the assays were performed on different days to ensure reproducibility.

[7] = tested on: B. cinerea; assay: In vitro fungicidal activity, radial mycelial growth test on PDA; assay type: cell-based; conditions: Botrytis cinerea, 72 h, read-out: Percentage of inhibition on in vitro mycelial growth of B. cinerea
Protocol: (§2) A strain of Botrytis cinerea isolated from a naturally infected grape (Vitis vinifera) was used in all experiments. Isolated Phytophtora cinnamomi was provided by the Agricultural and Livestock Service of Valparaíso. Both strains were maintained on a potato dextrose agar (PDA) medium (DIFCO, Detroit, MI) at 4°C. The inoculum of both pathogens was grown on PDA and incubates in dark at 23°C for 5 days in the case of B. cinerea and 8 days for P. cinnamomi.
(§3) The fungicidal activity of flavanones, extracts, the negative control (C-) composed of solvent (1% ethanol), and the positive control (C+, commercial fungicide Captan® and metalaxil® for B. cinerea and P. cinnamomi, respectively) were assessed using the radial growth test technique on PDA medium as described ([Taborga et al., 2015]). All test samples were dissolved in ethanol (1%) and water, to obtain final concentrations of 50, 150, and 250 mg/L in the PDA medium. A plug (4 mm) of PDA medium with five-day-old mycelium colonies of the pathogen was placed at the center of a Petri dish with PDA medium with or without studied test samples and were incubated at 23°C in dark for 72 h (B. cinerea) and 120 h (P. cinnamomi). After incubation, the diameters of colonies were measured and the inhibition percentage was calculated as the average of three replicas compared to C-.

[8] = target: T1, 5-hLOX; assay: In vitro 5-hLOX enzyme assay (H2DCFDA fluorescence); assay type: biochemical; conditions: kinetic assays, inhibitor 0–1 μM, substrate 0.2–5 μM
[9] = tested on: bacterial growth; set-up: method as in Bravo et al., 2005; conditions: high concentrations (1,000 µg/ml); ref Bravo et al., 2005; cited from earlier work
[10] = tested on: S. aureus ATCC; set-up: method as in Bravo et al., 2005; conditions: 250 µg/ml; ref Bravo et al., 2005; cited from earlier work
[11] = tested on: B16-F10 mouse metastatic melanoma cells; assay: In vitro cytotoxic activity, CyQuant cell viability, 72 h; assay type: cell-based; conditions: Mus musculus, B16-F10, 72 h, read-out: LC50 ± SD
Protocol: Cell viability was measured using a CyQuant® Direct Cell Proliferation Assay Kit (Life Technologies, Grand Island, NY, USA) following the manufacturer’s instruction. Briefly, 5,000 cells per well were seeded onto a flat-bottom 96-well plate in 200 μL final volume. Six hours after seeding, the culture medium was replaced by the medium containing the tested compounds at 0.01 to 100 µM concentrations in DMSO (0.1% final concentration) during 72 h. Untreated cells (medium containing only 0.1% DMSO) were used as controls. At the end of the incubation, 100 μL of culture medium was removed from each well and replaced by detection reagent solution provided by the kit (which is a 1:5 mixture of the reagent CyQUANT®, direct nucleic acid stain and the reagent labeled as CyQUANT® direct background suppressor I). […] At least four independent experiments were performed for each concentration.

[12] = as above; assay type: cell-based; conditions: mouse
Protocol: (§4) The used cell lines include MDA-MB-231 human breast adenocarcinoma cells, B16-F10 mouse metastatic melanoma cells and MEF primary mouse embryonic fibroblast. Cells were maintained in a DMEM high glucose medium (Mediatech, Manassas, VA, USA) supplemented with 10% (MDA-MB-231 and B16-F10) or 15% (MEF) heat-inactivated fetal bovine serum (HyClone Laboratories, South Logan, USA), 100 IU ml^-1 penicillin and 100 μg ml^-1 streptomycin while maintained at 37°C in a 5% CO2 humidified atmosphere. Cell viability was measured using a CyQuant® Direct Cell Proliferation Assay Kit (Life Technologies, Grand Island, NY, USA) following the manufacturer’s instruction. Briefly, 5,000 cells per well were seeded onto a flat-bottom 96-well plate in 200 μL final volume. Six hours after seeding, the culture medium was replaced by the medium containing the tested compounds at 0.01 to 100 µM concentrations in DMSO (0.1% final concentration) during 72 h. Untreated cells (medium containing only 0.1% DMSO) were used as controls. At the end of the incubation, 100 μL of culture medium was removed from each well and replaced by detection reagent solution provided by the kit (which is a 1:5 mixture of the reagent CyQUANT®, direct nucleic acid stain and the reagent labeled as CyQUANT® direct background suppressor I). Cells were incubated for 1 h and fluorescence emission was measured at 535 nm with excitation at 480 nm in a microplate reader (Infinite 200 PRO, Tecan, Grödig, Austria). At least four independent experiments were performed for each concentration. The results from each experiment were transformed into percentage of controls and the LC50 values were graphically obtained from the dose-response curves. The LC50 value was obtained adjusting the dose-response curve to sigmoidal curves (variable slope) using the GraphPad Prisma 6.0 software ([GraphPad-Software, 2015]).

[13] = tested on: MDA-MB-231 human breast adenocarcinoma cells; assay: as above; assay type: cell-based; conditions: Homo sapiens, MDA-MB-231, 72 h, read-out: LC50 ± SD
Protocol: as §4

[14] = tested on: P. cinnamomi; assay: In vitro fungicidal activity, radial mycelial growth test on PDA; assay type: cell-based, Phytophtora cinnamomi; conditions: 120 h
Protocol: as §2, §3

MIC [1]: > 100 µg/mL
MIC [2]: > 100 µg/mL
MIC [3]: > 100 µg/mL
MIC [4]: > 100 µg/mL
MIC [5]: > 100 µg/mL
inhibition at 10 µM ([6]; Flavanones at 10 µM): 11.7 ± 2.45%
SMILES: COc1cc(C2CC(=O)c3c(O)cc(O)cc3O2)ccc1O (stereo not shown) [Compound 4, 3’-methoxy-4’,5,7-trihydroxyflavanone]

SMILES: O=C1C2CC=CCC2C(=O)N1SC(Cl)(Cl)Cl (stereo not shown) [Captan]
inhibition at 50 µg/mL ([7]; 50 mg/L): 94 ± 5.2%
inhibition at 150 µg/mL ([7]; 150 mg/L): 100 ± 0.1%
inhibition at 250 µg/mL ([7]; 250 mg/L): 100 ± 0.2%

MIC [1]: > 100 µg/mL
MIC [2]: > 100 µg/mL
MIC [3]: > 100 µg/mL
MIC [4]: > 100 µg/mL
MIC [5]: > 100 µg/mL
Ki [8]: 70 nM
Type of inhibition [6]: competitive
inhibition at 10 µM ([6]; Flavanones at 10 µM): 88 ± 0.678%
IC50 ([6]; read-out: IC50 (5-hLOX)): 220 nM
SMILES: O=C1CC(c2ccc(O)c(O)c2)Oc2cc(O)cc(O)c21 (stereo not shown) [Compound 3, 5,7,3’,4’-Tetrahydroxyflavanone]

SMILES: O=C(O)c1cc(O)c(O)c(O)c1 [gallic acid]
inhibitory activity of bacterial growth [9]: inhibitory activity
inhibition activity of S. aureus ATCC [10]: 67.2%

Minimum inhibitory concentration (MIC) [1]: 25 µg/mL (≈ 17.3 µM)
Minimum inhibitory concentration (MIC) [2]: 5 µg/mL (≈ 3.45 µM)
Minimum inhibitory concentration (MIC) ([4]; 18 h): 3,5 µg/ml
SMILES: CN[C@H](CC(C)C)C(=O)N[C@H]1C(=O)N[C@@H](CC(N)=O)C(=O)N[C@H]2C(=O)N[C@H]3C(=O)N[C@H](C(=O)N[C@H](C(=O)O)c4cc(O)cc(O)c4-c4cc3ccc4O)[C@H](O)c3ccc(c(Cl)c3)Oc3cc2cc(c3O[C@@H]2O[C@H](CO)[C@@H](O)[C@H](O)[C@H]2O[C@H]2C[C@](C)(N)[C@H](O)[C@H](C)O2)Oc2ccc(cc2Cl)[C@H]1O [Vancomicin, reference compound]

SMILES: O=C1Nc2ccccc2OC1O (stereo not shown) [HBOA, 2-dydroxy-2H-1,4-benzoxazin-3(4H)-one]
inhibitory activity of bacterial growth [9]: inhibitory activity

SMILES: CC(=O)O[C@H]1C(=O)[C@@]2(C)[C@H]([C@H](OC(=O)c3ccccc3)[C@]3(O)C[C@H](OC(=O)[C@H](O)[C@@H](NC(=O)c4ccccc4)c4ccccc4)C(C)=C1C3(C)C)[C@]1(OC(C)=O)CO[C@@H]1C[C@@H]2O [Taxol, reference compound]
CC50 [11]: 480 ± 80 nM
CC50 at 72 h [12]: 400 ± 70 nM
CC50 [13]: 210 ± 480 nM

MIC [3]: > 100 µg/mL
MIC [5]: 60 µg/mL (≈ 172 µM)
SMILES: CC1(C)S[C@@H]2[C@H](NC(=O)[C@H](N)c3ccccc3)C(=O)N2[C@H]1C(=O)O [Ampicillin, reference compound]

SMILES: O=C1C(O)Oc2ccccc2N1O (stereo not shown) [DIBOA, 2,4-dihydroxy-2H-1,4-benzoxazin-3(4H)-one]
inhibitory activity of bacterial growth [9]: inhibitory activity

SMILES: COc1cc([C@@H]2c3cc4c(cc3[C@@H](O[C@@H]3O[C@@H]5CO[C@@H](C)O[C@H]5[C@H](O)[C@H]3O)[C@H]3COC(=O)[C@H]23)OCO4)cc(OC)c1O [Etoposide, reference compound]
CC50 [11]: 1740 ± 320 nM
CC50 at 72 h [12]: 1030 ± 170 nM
CC50 [13]: 1330 ± 280 nM

SMILES: O=c1[nH]c2ccccc2o1 [BOA, 2-benzoxazolinone]
inhibitory activity of bacterial growth [9]: inhibitory activity

SMILES: CC(Cc1ccc(O)c(O)c1)C(C)Cc1ccc(O)c(O)c1 (stereo not shown) [NDGA, nordihydroguaiaretic acid, reference compound]
Type of inhibition [6]: competitive
% of inhibition (5-hLOX) ([6]; Flavanones at 10 µM): 93 ± 5.870%

SMILES: O=C1Nc2ccc(O)cc2OC1O (stereo not shown) [Compound 7-OH-HBOA, 2,7-dihydroxy-2H-1,4-benzoxazin-3(4H)-one]
inhibitory activity of bacterial growth [9]: inhibitory activity

SMILES: COCC(=O)N(c1c(C)cccc1C)C(C)C(=O)OC (stereo not shown) [Metalaxil, reference compound]
Percentage of inhibition on in vitro mycelial growth of P. cinnamomi ([14]; 50 mg/L): 100 ± 0.2%
Percentage of inhibition on in vitro mycelial growth of P. cinnamomi ([14]; 150 mg/L): 100 ± 0.1%
Percentage of inhibition on in vitro mycelial growth of P. cinnamomi ([14]; 250 mg/L): 100 ± 0.1%
